Data published in ChEMBL document CHEMBL1127104, “L-708,474: The C5-cyclohexyl analogue of L-365,260, a selective high affinity ligand for the CCKB/gastrin receptor” (Bioorg Med Chem Lett, 1993).

Molecular target: T1, Cholecystokinin receptor type A (Rattus norvegicus, UniProt P30551)
T1 sequence (P30551 whole entry): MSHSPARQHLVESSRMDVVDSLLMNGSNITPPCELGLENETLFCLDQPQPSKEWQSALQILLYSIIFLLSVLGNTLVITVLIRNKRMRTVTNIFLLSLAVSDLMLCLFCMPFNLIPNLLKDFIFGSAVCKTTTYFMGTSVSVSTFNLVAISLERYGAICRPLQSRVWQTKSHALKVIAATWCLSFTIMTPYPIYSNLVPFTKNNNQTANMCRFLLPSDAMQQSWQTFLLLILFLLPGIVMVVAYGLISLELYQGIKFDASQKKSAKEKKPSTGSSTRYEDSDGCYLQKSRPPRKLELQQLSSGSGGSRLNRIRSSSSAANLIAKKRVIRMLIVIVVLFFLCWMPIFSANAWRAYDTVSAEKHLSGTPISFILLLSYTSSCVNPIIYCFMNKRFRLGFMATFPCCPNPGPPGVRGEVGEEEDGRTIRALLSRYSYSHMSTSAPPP
Assay: In vitro test for inhibition of [125I]CCK binding to Cholecystokinin type A receptor from rat pancreatic tissues was determined

Structure (SMILES) | IC50
Cc1cccc(NC(=O)NC2N=C(C3CCC3)c3ccccc3N(C)C2=O)c1 (stereo not drawn) | 402 nM
Cc1cccc(NC(=O)NC2N=C(C3CCCC3)c3ccccc3N(C)C2=O)c1 (stereo not drawn) | 27.1 nM
Cc1cccc(NC(=O)N[C@@H]2N=C(c3ccccc3)c3ccccc3N(C)C2=O)c1 [L-365260] | 736 nM
